Measurements published in paper PMC11279401, “Inhibitory Effect of Selected Guaianolide and Germacranolide Sesquiterpene Lactones on Nitric Oxide Production” (Molecules, 2024).
Entries after “also recorded” stand apart in the source; their conditions may differ. Where two headings read alike, the source gives them in different places.

What was measured:
[1] = test system: NO production by mouse peritoneal cells; experiment: Nitric oxide assay (Griess), LPS + IFN-γ-activated mouse peritoneal cells; type: cell-based; settings: 24 h; for IC50: (LPS + IFN-γ)-activated mouse peritoneal cells, concentrations 0.01–50.0 μM tested, read-out: Inhibition of nitric oxide production, IC50; for Effect on IFN-γ + LPS-activated NO production (in words): 10 µM screening, mouse peritoneal cells
Protocol: The tested compounds were dissolved in dimethyl sulfoxide (DMSO) to make stock solutions at a concentration of 50 mM, and then stored at −20 °C. Their biological activities were screened using a final concentration of 10 µM. […] This concentration of DMSO was devoid of any effects in biological assays.
(§1) The animals were killed by cervical dislocation and injected intraperitoneally with 8 mL of sterile saline. Pooled peritoneal cells collected from the mice (n = 4–6 in individual experiments) were washed and re-suspended in a culture medium. The cell suspension was seeded onto 96-well round-bottom microplates (Costar, Corning, NY, USA). Final samples were supplemented to 100 µL volumes, containing 1–2 × 10^6 cells per well, depending on the assay. Cultures were maintained at 37 °C, 5% CO2 in a humidified incubator (Heraeus Holding GmbH, Hanau, Germany). The complete RPMI-1640 culture medium (Sigma-Aldrich, St. Louis, MO, USA) contained 10% heat-inactivated fetal bovine serum, 2 mM L-glutamine, 50 µg/mL gentamicin, and 5 × 10^−5 M 2-mercaptoethanol (all Sigma-Aldrich).
High-output NO production was induced by a mixture of lipopolysaccharide (LPS from E. coli 0111:B4, 0.1 ng/mL; Sigma) and murine recombinant interferon-γ (IFN-γ, 5 ng/mL; R&D Systems, Minneapolis, MN, USA) in mouse peritoneal cells (2 × 10^6/mL). The tested compounds were applied concomitantly with both priming stimuli, and peritoneal macrophages were cultured for 24 h. The concentration of nitrites in the supernatants of the cell cultures was taken as a measure of NO production. It was detected in individual cell-free samples (50 µL) incubated for 5 min at ambient temperature with an aliquot of Griess reagent (1% sulfanilamide/0.1% naphtylendiamine/2.5% H3PO4). Absorbance at 540 nm was recorded using a microplate spectrophotometer (Tecan, Grödig, Austria). A nitrite calibration curve was used to convert absorbance values to µM of nitrite.

mouse peritoneal cells = experiment: Cytotoxicity assay (WST-1), viability of mouse peritoneal cells; type: cell-based; settings: 10 µM compound, primary murine macrophages
Protocol: (§2) The tested compounds were dissolved in dimethyl sulfoxide (DMSO) to make stock solutions at a concentration of 50 mM, and then stored at −20 °C. Their biological activities were screened using a final concentration of 10 µM.
as §1, with “Germany).” for “Germany). The complete RPMI-1640 culture medium (Sigma-Aldrich, St. Louis, MO, USA) contained 10% heat-inactivated fetal bovine serum, 2 mM L-glutamine, 50 µg/mL gentamicin, and 5 × 10^−5 M 2-mercaptoethanol (all Sigma-Aldrich).”
(§3) The viability of mouse peritoneal cells was determined using a colorimetric assay based on the cleavage of tetrazolium salt WST-1 by mitochondrial dehydrogenases in viable cells (Roche Diagnostics, Mannheim, Germany). The cells (1 × 10^6/mL) were cultured as described above. The viability of primary murine macrophages was tested in the presence of 10 µM of the respective test substance for […]. After the first 24 h of cultivation, WST-1 was added (10 µL), and the cells were kept in a Heraeus incubator at 37 °C for an additional 3 h. Triton X-100 (1%) was used as a common reference in the cytotoxicity assay. Optical density was evaluated at wavelengths of 450–690 nm.

[2] = as above; type: cell-based; settings: 10 µM compound, mouse peritoneal cells 1.0 × 10^6/mL, 24 h, read-out: Cell viability (O.D.) relative to untreated controls; for viability at 24 h, 10 µM: primary mouse peritoneal cells (macrophages)
Protocol: as §2
as §1, with “Germany).” for “Germany). The complete RPMI-1640 culture medium (Sigma-Aldrich, St. Louis, MO, USA) contained 10% heat-inactivated fetal bovine serum, 2 mM L-glutamine, 50 µg/mL gentamicin, and 5 × 10^−5 M 2-mercaptoethanol (all Sigma-Aldrich).”
as §3

[3] = test system: polymorphonuclear lymphocytes; set-up: method as in PMID 30653318; settings: cited from earlier work
RAW264.7 macrophages = settings: cited from earlier work
[4] = test system: secretion of cytokines TNF-α, IL-1β, IL-6, IL-10 and chemokine RANTES by murine peritoneal cells; experiment: Cytokine assays (ELISA), LPS-stimulated murine peritoneal cells; type: cell-based, mouse; settings: 1 µg/mL LPS, 21 h, IL-6, IL-10, RANTES
Protocol: as §1
(§4) The concentration of PGE2 was determined in the supernatants of cells cultured (2 × 10^6/mL) after the addition of 10 ng/mL LPS for an interval of 6 h. The levels of cytokines TNF-α, IL-1β, IL-6, and IL-10, and the chemokine RANTES were determined in the supernatants of cells cultured (2 × 10^6/mL) in the presence of 1 µg/mL LPS for an interval 21 h. The extent of PGE2 release and cytokine secretion was determined using enzyme-linked immune-absorbent assay (ELISA) kits according to the manufacturer’s instructions (R&D Systems, Minneapolis, MN, USA).

[5] = test system: production of PGE2 by murine peritoneal cells; experiment: Prostaglandin E2 assay (ELISA), LPS-stimulated murine peritoneal cells; type: cell-based, mouse; settings: 10 ng/mL LPS, 6 h, murine peritoneal cells 2.0 × 10^6/mL
Protocol: as §1, §4

CC1=CC(=O)C2=C(C)CC(OC3OC(CO)C(O)C(O)C3O)C3C(OC(=O)C3(C)O)C12 (stereo not drawn) [Compound 10, 11β-hydroxydeacetylmatricarin glucoside]
IC50 [1]: > 100 µM

C=C1C(=O)O[C@@H]2/C=C(\C)CC/C=C(\C)CC[C@@H]12 [Compound 16, costunolide]
Cytotoxicity / effect on cell viability (in words) (mouse peritoneal cells): moderate toxicity; also recorded: remarkable cytotoxicity | viability at 24 h, 10 µM [2]: ~50% | IC50 [1]: 3.2 µM

C=C1C(=O)O[C@@H]2/C=C(\C)CC/C=C(\C)C[C@@H](OC(=O)/C(=C/CO)CO)[C@@H]12 [Compound 18, eupatoriopicrin]
Cytotoxicity / effect on cell viability (in words) (mouse peritoneal cells): highly toxic; also recorded: remarkable cytotoxicity | viability at 10 µM [2]: ~10% | Concentration up to which not toxic [3]: ≤ 2500 nM | IC50 [1]: 1.65 µM

eupatolide [Compound 17]
IC50 (RAW264.7 macrophages; murine macrophage line RAW264.7, read-out: Inhibitory potency against NO production, concentration range): 1.54 to 6.43 µM | Effect on IFN-γ + LPS-activated NO production (in words) [1]: significant NO-inhibitory effect | IC50 [1]: 4.38 µM

C=C1C(=O)OC2C1CC(O)C(C)=CCCC1(C)OC21 (stereo not shown) [Compound 20, 9-hydroxyparthenolide]
viability at 10 µM [2]: 77 ± 5.09% | Effect on IFN-γ + LPS-activated NO production (in words) [1]: substantially decreased the production of NO | IC50 [1]: 5.64 µM

CC1=CC(=O)C2=C(C)C[C@H](O)[C@@H]3[C@H](OC(=O)[C@H]3C)[C@@H]12 [Compound 3, deacetylmatricarin]
IC50 [1]: > 100 µM

C=C(CO)C(=O)O[C@H]1CC(=C)[C@@H]2C[C@H](O)C(=C)[C@@H]2[C@H]2OC(=O)C(=C)[C@@H]21 [Compound 14, cynaropicrin]
Cytotoxicity / effect on cell viability (in words) (mouse peritoneal cells): cytotoxic; also recorded: remarkable cytotoxicity | viability at 24 h, 10 µM [2]: ~50% | IC50 [1]: 9.87 µM

C=C1C(=O)O[C@H]2[C@H]1CC/C(C)=C/CC[C@@]1(C)O[C@@H]21 [Compound 19, parthenolide]
viability at 24 h, 10 µM [2]: 81.1 ± 6.34% | Effect on IFN-γ + LPS-activated NO production (in words) [1]: substantially decreased the production of NO | IC50 [1]: 2.79 µM

CC1=C2C(=O)C=C(CO)[C@@H]2[C@H]2OC(=O)[C@@H](C)[C@@H]2[C@@H](O)C1 [Compound 4, 11β,13-dihydrolactucin]
IC50 [1]: > 100 µM

C=C1CC(O)C2C(=C)C(=O)OC2C2C1CC(OC1OC(CO)C(O)C(O)C1O)C2C (stereo not shown) [Compound 11, 11,13-dehydro-8-epiisolippidiol glucoside]
IC50 [1]: > 100 µM

C=C1C(O)CC2C(C)C(=O)OC2C2C(=C)C(OC3OC(CO)C(O)C(O)C3O)CC12 (stereo not shown) [Compound 8, ixerin F]
IC50 [1]: > 100 µM

CC1=C2C(=O)C=C(COC3OC(CO)C(O)C(O)C3O)C2C2OC(=O)C(C)C2CC1 (stereo not shown) [Compound 7, crepidiaside B]
IC50 [1]: > 100 µM

C=C1C(=O)O[C@@H]2[C@H]3C(CO)=CC(=O)C3=C(C)CC[C@@H]12 [Compound 13, 8-deoxylactucin]
IC50 (RAW264.7 macrophages; RAW264.7 macrophages, read-out: Inhibition of nitric oxide production, IC50): 13 µM | Effect on secretion of cytokines (in words) [4]: did not interfere | Cytotoxicity / effect on cell viability (in words) (mouse peritoneal cells): without any suppression of cell viability | Effect on immune-activated production of PGE2 (in words) [5]: did not interfere | Effect on IFN-γ + LPS-activated NO production (in words) [1]: significant NO-inhibitory effect | IC50 [1]: 2.81 µM

C=C1C[C@@H](O)[C@@H]2[C@H](OC(=O)[C@H]2C)[C@H]2[C@H](C)[C@@H](O)C[C@@H]12 [Compound 2, 8-epiisolippidiol]
IC50 [1]: > 100 µM

CC=C(C)C(=O)OC1(C)C(=O)OC2C=C(C)CCC=C(C)CCC(OC(C)=O)C21 (stereo not shown) [Compound 21, laserolide]
Cytotoxicity / effect on cell viability (in words) (mouse peritoneal cells): did not show any cytotoxicity | IC50 [1]: 90.2 µM

C=C1C(=O)O[C@@H]2C[C@@H](C)[C@@H]3C=CC(=O)[C@@]3(C)[C@@H](O)[C@H]12 [Compound 15, helenalin]
IC50 [1]: 0.74 µM

CC1=CC(=O)C2=C(C)CC(OC3OC(CO)C(O)C(O)C3O)C3C(C)C(=O)OC3C12 (stereo not shown) [Compound 6, deacetylmatricarin glucoside]
IC50 [1]: > 100 µM

C=C1C[C@@H](O)[C@@H]2[C@H](OC(=O)[C@H]2C)[C@H]2[C@H](C)C(=O)C[C@@H]12 [Compound 1, 8-epiisoamberboin]
Cytotoxicity / effect on cell viability (in words) (mouse peritoneal cells): without any suppression of cell viability | NO production relative to controls stimulated with IFN-γ + LPS ([1]; 10 µM compound, mouse peritoneal cells 2.0 × 10^6/mL): about 25% | Effect on IFN-γ + LPS-activated NO production (in words) [1]: significant NO-inhibitory effect | IC50 [1]: 23.8 µM

CC1=CC(=O)C2=C(C)CCC3C(OC(=O)C3(C)OC3OC(CO)C(O)C(O)C3O)C12 (stereo not drawn) [Compound 9, 11β-hydroxyleukodin glucoside]
IC50 [1]: > 100 µM

C=C1CC(O)C2C(C)C(=O)OC2C2C1CC(OC1OC(CO)C(O)C(O)C1O)C2C (stereo not shown) [Compound 5, 4,8-diepiisolippidiol glucoside]
IC50 [1]: > 100 µM

C=C1C(=O)OC2C1CCC(C)(O)C1CC(OC3OC(CO)C(O)C(O)C3O)C(=C)C21 (stereo not shown) [Compound 12, ixerin D]
IC50 [1]: > 100 µM
